≈ marks a conversion by molar mass, not a printed value. Calls of active or inactive are those of the source. The rule behind the calls is not given here.
Key:
A549 = assay: Cytotoxicity against human A549 cells assessed as inhibition of cell proliferation after 48 hrs by MTT assay; type: functional, cell-based; conditions: A549, 48 h
MCF7 [1] = assay: Cytotoxicity against human MCF7 cells assessed as inhibition of cell proliferation after 48 hrs by MTT assay; type: functional, cell-based; conditions: MCF7, 48 h
HCT-116 = assay: Cytotoxicity against human HCT116 cells assessed as inhibition of cell proliferation after 48 hrs by MTT assay; type: functional, cell-based; conditions: HCT-116, 48 h
HepG2 = assay: Cytotoxicity against human HepG2 cells assessed as inhibition of cell proliferation after 48 hrs by MTT assay; type: functional, cell-based; conditions: HepG2, 48 h
[2] = Cytotoxicity against human HFB4 cells assessed as inhibition of cell proliferation after 48 hrs by MTT assay; type: cell-based
MCF7 [3] = assay: Upregulation of p53 mRNA expression in human MCF7 cells at IC50 after 48 hrs by RT-PCR method; type: functional, cell-based
MCF7 [4] = assay: Upregulation of Bax mRNA expression in human MCF7 cells at IC50 after 48 hrs by RT-PCR method; type: functional, cell-based
MCF7 [5] = assay: Upregulation of caspase-3 mRNA expression in human MCF7 cells at IC50 after 48 hrs by RT-PCR method; type: functional, cell-based
MCF7 [6] = assay: Downregulation of BCL-2 mRNA expression in human MCF7 cells at IC50 after 48 hrs by RT-PCR method; type: functional, cell-based
MCF7 [7] = assay: Downregulation of MMP1 mRNA expression in human MCF7 cells at IC50 after 48 hrs by RT-PCR method; type: functional, cell-based
MCF7 [8] = assay: Downregulation of CDK4 mRNA expression in human MCF7 cells at IC50 after 48 hrs by RT-PCR method; type: functional, cell-based
MCF7 [9] = assay: Cell cycle arrest in human MCF7 cells assessed as accumulation at G0/G1 phase at 27.15 ug/ml after 48 hrs by propidium iodide staining-based flow cytometric method (reference value: 71.13%); type: functional
MCF7 [10] = assay: Cell cycle arrest in human MCF7 cells assessed as accumulation at S phase at 27.15 ug/ml after 48 hrs by propidium iodide staining-based flow cytometric method (reference value: 23.5%); type: functional
MCF7 [11] = assay: Cell cycle arrest in human MCF7 cells assessed as accumulation at G2/M phase at 27.15 ug/ml after 48 hrs by propidium iodide staining-based flow cytometric method (reference value: 4.82%); type: functional
MCF7 [12] = assay: Induction of apoptosis in human MCF7 cells at 27.15 ug/ml after 48 hrs by propidium iodide staining-based flow cytometric method (reference value: 0.55%); type: functional
MCF7 [13] = assay: Induction of apoptosis in human MCF7 cells assessed as cell aggregates at 27.15 ug/ml after 48 hrs by propidium iodide staining-based flow cytometric method (reference value: 4.49%); type: functional
MCF7 [14] = assay: Induction of apoptosis in human MCF7 cells assessed as cell debris at 27.15 ug/ml after 48 hrs by propidium iodide staining-based flow cytometric method (reference value: 2.75%); type: functional
MCF7 [15] = assay: Induction of apoptosis in human MCF7 cells assessed as induction of caspase-3 activity by measuring caspase-3 levels at 27.15 ug/ml after 24 hrs ELISA (reference value: 0.0197 ng/ml); type: functional
MCF7 [16] = assay: Cell cycle arrest in human MCF7 cells assessed as accumulation at G0/G1 phase at 50.05 ug/ml after 48 hrs by propidium iodide staining-based flow cytometric method (reference value: 71.13%); type: functional
MCF7 [17] = assay: Cell cycle arrest in human MCF7 cells assessed as accumulation at S phase at 50.05 ug/ml after 48 hrs by propidium iodide staining-based flow cytometric method (reference value: 23.5%); type: functional
MCF7 [18] = assay: Cell cycle arrest in human MCF7 cells assessed as accumulation at G2/M phase at 50.05 ug/ml after 48 hrs by propidium iodide staining-based flow cytometric method (reference value: 4.82%); type: functional
MCF7 [19] = assay: Induction of apoptosis in human MCF7 cells at 50.05 ug/ml after 48 hrs by propidium iodide staining-based flow cytometric method (reference value: 0.55%); type: functional
MCF7 [20] = assay: Induction of apoptosis in human MCF7 cells assessed as cell aggregates at 50.05 ug/ml after 48 hrs by propidium iodide staining-based flow cytometric method (reference value: 4.49%); type: functional
MCF7 [21] = assay: Induction of apoptosis in human MCF7 cells assessed as cell debris at 50.05 ug/ml after 48 hrs by propidium iodide staining-based flow cytometric method (reference value: 2.75%); type: functional
MCF7 [22] = assay: Induction of apoptosis in human MCF7 cells assessed as induction of caspase-3 activity by measuring caspase-3 levels at 50.05 ug/ml after 24 hrs ELISA (reference value: 0.0197 ng/ml); type: functional

Row | Compound | IC50 (A549) | IC50 (MCF7 [1]) | IC50 (HCT-116) | IC50 (HepG2) | IC50 [2] | also measured
1 | O=c1[nH]cc(F)c(=O)[nH]1 [FLUOROURACIL] | 66 µg/mL (≈ 507 µM) | 178 µg/mL (≈ 1370 µM) | 201 µg/mL (≈ 1550 µM) | 237 µg/mL (≈ 1820 µM) | – | –
2 | COc1cc2c(cc1OC)C1N(CC2)C(C(=O)/C=C/c2ccccc2)=NN1c1ccccc1 (stereo not drawn) | 78.1 µg/mL (≈ 178 µM) | 61.4 µg/mL (≈ 140 µM) | 625 µg/mL (≈ 1420 µM) | 139 µg/mL (≈ 317 µM) | 52.1 µg/mL (≈ 119 µM) | –
3 | COc1ccc(/C=C/C(=O)C2=NN(c3ccccc3)C3c4cc(OC)c(OC)cc4CCN23)cc1 (stereo not drawn) | 190 µg/mL (≈ 404 µM) | 68.5 µg/mL (≈ 146 µM) | 243 µg/mL (≈ 518 µM) | 218 µg/mL (≈ 464 µM) | 115 µg/mL (≈ 245 µM) | –
4 | COc1cc2c(cc1OC)C1N(CC2)C(C(=O)/C=C/c2ccc(Cl)cc2)=NN1c1ccccc1 (stereo not drawn) | 156 µg/mL (≈ 329 µM) | 151 µg/mL (≈ 319 µM) | 622 µg/mL (≈ 1310 µM) | 141 µg/mL (≈ 297 µM) | 57.2 µg/mL (≈ 121 µM) | –
5 | COc1cc2c(cc1OC)C1N(CC2)C(C(=O)/C=C/c2cc(OC)c(OC)c(OC)c2)=NN1c1ccccc1 (stereo not drawn) | 156 µg/mL (≈ 295 µM) | 27.1 µg/mL (≈ 51.3 µM) | – | 107 µg/mL (≈ 202 µM) | – | Activity (MCF7 [3]): Active; Activity (MCF7 [4]): Active; Activity (MCF7 [5]): Active; Activity (MCF7 [6]): Active; Activity (MCF7 [7]): Active; Activity (MCF7 [8]): Active; Activity (MCF7 [9]): 66.11%; Activity (MCF7 [10]): 16.01%; Activity (MCF7 [11]): 0.6%; Activity (MCF7 [12]): 17.28%; Activity (MCF7 [13]): 7.92%; Activity (MCF7 [14]): 5.71%; Activity (MCF7 [15]): 0.4108 ng/mL
6 | COc1cc2c(cc1OC)C1N(CC2)C(C(=O)/C=C/c2ccc([N+](=O)[O-])cc2)=NN1c1ccccc1 (stereo not drawn) | 207 µg/mL (≈ 427 µM) | 50 µg/mL (≈ 103 µM) | 114 µg/mL (≈ 236 µM) | 478 µg/mL (≈ 986 µM) | 245 µg/mL (≈ 506 µM) | Activity (MCF7 [3]): Active; Activity (MCF7 [4]): Active; Activity (MCF7 [5]): Active; Activity (MCF7 [6]): Active; Activity (MCF7 [7]): Active; Activity (MCF7 [8]): Active; Activity (MCF7 [16]): 74.52%; Activity (MCF7 [17]): 17.06%; Activity (MCF7 [18]): 0%; Activity (MCF7 [19]): 8.72%; Activity (MCF7 [20]): 4.85%; Activity (MCF7 [21]): 3.88%; Activity (MCF7 [22]): 0.3573 ng/mL
7 | COc1cc2c(cc1OC)C1N(CC2)C(C(=O)/C=C/c2ccc3c(c2)OCO3)=NN1c1ccccc1 (stereo not drawn) | 201 µg/mL (≈ 417 µM) | 225 µg/mL (≈ 466 µM) | 187 µg/mL (≈ 388 µM) | 122 µg/mL (≈ 253 µM) | 51.9 µg/mL (≈ 107 µM) | –
